According to US10710978B2, “STK4 inhibitors for treatment of hematologic malignancies” (Dana-Farber Cancer Institute, Inc., priority 2015, dated 2020):
Where two headings read alike, the source gives them in different places.

Columns and labels:
Experiment in all cases: KiNativ assay
Type in all cases: binding
ATR = ATR (Homo sapiens (Human), UniProt Q13535); settings: H929 live cell
Protocol: (§1) Biochemical IC50s of the compounds of the present disclosure against various kinases were measured in a KiNativ assay. Compounds were screened in duplicate at 10 μM in H929 live cell. IC50 was measured via Mass spectroscopy (MS).

AurA, AurB, AurC = settings: H929 live cell
Protocol: as §1

AurB = AurB (Homo sapiens (Human), UniProt Q96GD4); settings: H929 live cell
Protocol: as §1

CDK7 = CDK7 (Homo sapiens (Human), UniProt P50613); settings: H929 live cell
Protocol: as §1

CHK2 = CHK2 (Homo sapiens (Human), UniProt O96017); settings: H929 live cell
Protocol: as §1

CaMKK2 = CaMKK2 (Homo sapiens (Human), UniProt Q96RR4); settings: H929 live cell
Protocol: as §1

Erk1 = Erk1 (Homo sapiens (Human), UniProt P27361); settings: H929 live cell
Protocol: as §1

FRAP = FRAP (Homo sapiens (Human), UniProt P42345); settings: H929 live cell
Protocol: as §1

FYN, SRC, YES = settings: H929 live cell
Protocol: as §1

GCK = GCK (Homo sapiens (Human), UniProt Q12851); settings: H929 live cell
Protocol: as §1

GSK3A = GSK3A (Homo sapiens (Human), UniProt P49840); settings: H929 live cell
Protocol: as §1

JAK1 domain2 = JAK1 domain2 (Homo sapiens (Human), UniProt P23458); settings: H929 live cell
Protocol: as §1

KHS1 = KHS1 (Homo sapiens (Human), UniProt Q9Y4K4); settings: H929 live cell
Protocol: as §1

KSR1, KSR2 = settings: H929 live cell
Protocol: as §1

LOK = LOK (Homo sapiens (Human), UniProt O94804); settings: H929 live cell
Protocol: as §1

MARK2 = MARK2 (Homo sapiens (Human), UniProt Q7KZI7); settings: H929 live cell
Protocol: as §1

MST2 = MST2 (Homo sapiens (Human), UniProt Q13188); settings: H929 live cell
Protocol: as §1

NDR1 = NDR1 (Homo sapiens (Human), UniProt Q15208); settings: H929 live cell
Protocol: as §1

NuaK1 = NuaK1 (Homo sapiens (Human), UniProt O60285); settings: H929 live cell
Protocol: as §1

PI4KB = PI4KB (Homo sapiens (Human), UniProt Q9UBF8); settings: H929 live cell
Protocol: as §1

PIP4K2C = PIP4K2C (Homo sapiens (Human), UniProt Q8TBX8); settings: H929 live cell
Protocol: as §1

PITSLRE = settings: H929 live cell
Protocol: as §1

PKCi = PKCi (Homo sapiens (Human), UniProt P41743); settings: H929 live cell
Protocol: as §1

PRP4 = PRP4 (Homo sapiens (Human), UniProt Q13523); settings: H929 live cell
Protocol: as §1

[1] = system: RSK1 domain1, RSK2 domain1, RSK3 domain1; settings: H929 live cell
Protocol: as §1

RSK2 domain2 = RSK2 domain2 (Homo sapiens (Human), UniProt P51812); settings: H929 live cell
Protocol: as §1

RSKL1 = RSKL1 (Homo sapiens (Human), UniProt Q96S38); settings: H929 live cell
Protocol: as §1

SGK3 = SGK3 (Homo sapiens (Human), UniProt Q96BR1); settings: H929 live cell
Protocol: as §1

TAO1, TAO3 = settings: H929 live cell
Protocol: as §1

TLK1 = TLK1 (Homo sapiens (Human), UniProt Q9UKI8); settings: H929 live cell
Protocol: as §1

TYK2 domain2 = TYK2 domain2 (Homo sapiens (Human), UniProt P29597); settings: H929 live cell
Protocol: as §1

p38a = p38a (Homo sapiens (Human), UniProt Q16539); settings: H929 live cell, range class, read-out: % inhibition
Procedure, shortened: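 Compounds were tested in duplicate at 10 μM in live H929 cells, and kinase engagement was profiled by KiNativ with mass spectrometry read-out to derive IC50.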

p70S6K = p70S6K (Homo sapiens (Human), UniProt P23443); settings: H929 live cell
Protocol: as §1

p70S6Kb = p70S6Kb (Homo sapiens (Human), UniProt Q9UBS0); settings: H929 live cell
Protocol: as §1

[2] = range class, read-out: % inhibition

Sequence of NuaK1 (O60285 whole entry): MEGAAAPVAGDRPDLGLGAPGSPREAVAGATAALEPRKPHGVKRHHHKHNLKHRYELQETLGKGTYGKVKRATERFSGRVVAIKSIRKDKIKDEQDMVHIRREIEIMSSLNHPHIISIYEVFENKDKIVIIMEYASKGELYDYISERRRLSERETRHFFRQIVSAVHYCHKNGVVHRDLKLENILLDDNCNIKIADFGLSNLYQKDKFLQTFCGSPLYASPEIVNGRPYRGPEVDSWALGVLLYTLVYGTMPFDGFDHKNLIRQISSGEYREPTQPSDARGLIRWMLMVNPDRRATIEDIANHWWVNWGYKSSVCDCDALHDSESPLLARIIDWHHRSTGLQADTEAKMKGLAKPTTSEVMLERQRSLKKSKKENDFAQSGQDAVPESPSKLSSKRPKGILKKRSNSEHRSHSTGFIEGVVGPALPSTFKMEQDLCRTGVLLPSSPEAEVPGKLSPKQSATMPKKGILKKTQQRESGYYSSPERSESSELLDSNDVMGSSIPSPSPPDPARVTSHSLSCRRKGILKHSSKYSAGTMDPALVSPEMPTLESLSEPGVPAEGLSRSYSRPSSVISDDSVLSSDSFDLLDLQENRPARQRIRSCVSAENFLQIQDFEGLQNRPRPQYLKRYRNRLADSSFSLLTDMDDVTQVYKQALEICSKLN
Sequence of NDR1 (Q15208 whole entry): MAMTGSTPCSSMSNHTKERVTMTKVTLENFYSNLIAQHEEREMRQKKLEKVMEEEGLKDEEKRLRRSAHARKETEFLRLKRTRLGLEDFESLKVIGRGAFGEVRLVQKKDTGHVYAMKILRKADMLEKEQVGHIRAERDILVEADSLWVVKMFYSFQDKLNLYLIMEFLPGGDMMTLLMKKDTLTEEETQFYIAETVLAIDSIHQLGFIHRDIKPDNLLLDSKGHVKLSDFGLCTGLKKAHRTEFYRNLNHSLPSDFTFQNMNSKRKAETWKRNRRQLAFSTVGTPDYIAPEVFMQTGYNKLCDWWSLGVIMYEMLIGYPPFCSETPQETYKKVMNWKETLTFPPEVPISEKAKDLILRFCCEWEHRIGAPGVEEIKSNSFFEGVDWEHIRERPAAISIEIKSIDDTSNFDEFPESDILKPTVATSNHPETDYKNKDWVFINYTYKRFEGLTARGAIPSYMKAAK
Sequence of Erk1 (P27361 whole entry): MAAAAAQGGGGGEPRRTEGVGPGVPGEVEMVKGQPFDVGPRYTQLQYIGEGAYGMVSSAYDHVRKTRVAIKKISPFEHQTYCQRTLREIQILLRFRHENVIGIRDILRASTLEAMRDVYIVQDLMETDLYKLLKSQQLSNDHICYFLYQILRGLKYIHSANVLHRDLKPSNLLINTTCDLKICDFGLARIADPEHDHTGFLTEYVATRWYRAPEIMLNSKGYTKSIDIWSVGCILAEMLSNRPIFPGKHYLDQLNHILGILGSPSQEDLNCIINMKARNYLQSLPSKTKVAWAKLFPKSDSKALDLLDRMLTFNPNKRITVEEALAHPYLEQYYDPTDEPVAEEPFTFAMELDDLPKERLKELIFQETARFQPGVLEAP
Sequence of RSK2 domain2 (P51812 whole entry, the tested form may be a part): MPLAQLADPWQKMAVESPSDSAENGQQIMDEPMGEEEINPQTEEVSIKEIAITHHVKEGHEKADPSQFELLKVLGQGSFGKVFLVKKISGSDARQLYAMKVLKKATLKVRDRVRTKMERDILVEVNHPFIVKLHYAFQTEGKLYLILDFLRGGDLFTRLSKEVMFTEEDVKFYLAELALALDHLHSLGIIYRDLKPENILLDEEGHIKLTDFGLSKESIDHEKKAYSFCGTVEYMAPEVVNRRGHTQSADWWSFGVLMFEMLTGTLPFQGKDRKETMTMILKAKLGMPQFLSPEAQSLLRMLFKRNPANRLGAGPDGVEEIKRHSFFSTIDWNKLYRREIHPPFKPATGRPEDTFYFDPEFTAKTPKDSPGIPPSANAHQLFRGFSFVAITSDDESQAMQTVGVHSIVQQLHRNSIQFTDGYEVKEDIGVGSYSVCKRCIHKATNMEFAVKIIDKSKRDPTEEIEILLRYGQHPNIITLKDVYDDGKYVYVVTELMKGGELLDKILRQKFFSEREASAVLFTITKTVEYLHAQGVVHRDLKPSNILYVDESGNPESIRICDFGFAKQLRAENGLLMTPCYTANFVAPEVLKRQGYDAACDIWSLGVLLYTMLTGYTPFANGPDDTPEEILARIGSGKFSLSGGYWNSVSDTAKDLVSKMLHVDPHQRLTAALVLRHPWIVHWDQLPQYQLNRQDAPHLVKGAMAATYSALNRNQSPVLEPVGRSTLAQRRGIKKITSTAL
Sequence of SGK3 (Q96BR1 whole entry): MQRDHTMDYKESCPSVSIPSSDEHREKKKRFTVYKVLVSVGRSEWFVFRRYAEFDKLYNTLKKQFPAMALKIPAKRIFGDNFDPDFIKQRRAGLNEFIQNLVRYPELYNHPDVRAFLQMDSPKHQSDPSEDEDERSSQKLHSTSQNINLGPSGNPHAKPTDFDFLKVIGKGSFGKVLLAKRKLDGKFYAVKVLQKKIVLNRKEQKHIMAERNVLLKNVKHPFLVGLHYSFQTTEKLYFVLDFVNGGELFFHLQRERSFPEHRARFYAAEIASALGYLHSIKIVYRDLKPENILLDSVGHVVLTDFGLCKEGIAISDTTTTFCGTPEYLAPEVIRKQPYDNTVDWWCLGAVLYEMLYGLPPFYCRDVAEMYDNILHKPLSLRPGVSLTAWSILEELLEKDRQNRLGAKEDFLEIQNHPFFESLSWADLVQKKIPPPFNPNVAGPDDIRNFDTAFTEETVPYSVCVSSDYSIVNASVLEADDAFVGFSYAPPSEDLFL
Sequence of LOK (O94804 whole entry): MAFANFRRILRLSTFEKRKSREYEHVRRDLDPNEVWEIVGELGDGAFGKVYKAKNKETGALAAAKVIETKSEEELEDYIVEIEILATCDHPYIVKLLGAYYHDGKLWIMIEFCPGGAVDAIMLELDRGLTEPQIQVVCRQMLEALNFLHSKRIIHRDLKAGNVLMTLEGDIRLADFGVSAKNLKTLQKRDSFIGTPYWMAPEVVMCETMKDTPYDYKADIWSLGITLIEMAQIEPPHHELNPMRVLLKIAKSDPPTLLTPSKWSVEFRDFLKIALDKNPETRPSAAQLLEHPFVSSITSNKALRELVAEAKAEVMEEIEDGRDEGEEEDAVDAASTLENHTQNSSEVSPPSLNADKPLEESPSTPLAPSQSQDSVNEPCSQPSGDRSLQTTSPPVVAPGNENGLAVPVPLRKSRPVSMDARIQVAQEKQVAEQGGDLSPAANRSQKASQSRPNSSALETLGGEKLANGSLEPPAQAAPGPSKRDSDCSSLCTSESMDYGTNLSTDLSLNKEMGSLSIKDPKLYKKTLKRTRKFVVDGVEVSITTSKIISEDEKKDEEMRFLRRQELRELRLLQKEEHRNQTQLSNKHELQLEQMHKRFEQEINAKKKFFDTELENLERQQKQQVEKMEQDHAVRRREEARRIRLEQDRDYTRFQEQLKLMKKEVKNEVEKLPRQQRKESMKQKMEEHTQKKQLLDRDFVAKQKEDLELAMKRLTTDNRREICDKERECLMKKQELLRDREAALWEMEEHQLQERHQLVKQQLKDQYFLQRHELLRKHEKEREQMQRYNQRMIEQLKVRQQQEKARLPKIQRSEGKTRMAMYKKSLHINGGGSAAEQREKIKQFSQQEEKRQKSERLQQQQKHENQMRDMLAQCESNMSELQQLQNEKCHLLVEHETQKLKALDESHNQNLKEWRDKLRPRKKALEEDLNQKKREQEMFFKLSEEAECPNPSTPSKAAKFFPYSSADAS
Sequence of AurB (Q96GD4 whole entry): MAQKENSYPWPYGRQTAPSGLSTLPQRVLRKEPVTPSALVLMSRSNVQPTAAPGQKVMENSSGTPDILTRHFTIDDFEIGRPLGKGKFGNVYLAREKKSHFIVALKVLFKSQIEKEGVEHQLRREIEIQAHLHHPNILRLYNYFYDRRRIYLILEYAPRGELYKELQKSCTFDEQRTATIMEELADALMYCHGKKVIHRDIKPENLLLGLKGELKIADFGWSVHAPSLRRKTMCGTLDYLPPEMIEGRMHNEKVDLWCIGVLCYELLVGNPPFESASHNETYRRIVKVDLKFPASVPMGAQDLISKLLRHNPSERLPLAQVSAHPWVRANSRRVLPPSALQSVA
Sequence of GSK3A (P49840 whole entry): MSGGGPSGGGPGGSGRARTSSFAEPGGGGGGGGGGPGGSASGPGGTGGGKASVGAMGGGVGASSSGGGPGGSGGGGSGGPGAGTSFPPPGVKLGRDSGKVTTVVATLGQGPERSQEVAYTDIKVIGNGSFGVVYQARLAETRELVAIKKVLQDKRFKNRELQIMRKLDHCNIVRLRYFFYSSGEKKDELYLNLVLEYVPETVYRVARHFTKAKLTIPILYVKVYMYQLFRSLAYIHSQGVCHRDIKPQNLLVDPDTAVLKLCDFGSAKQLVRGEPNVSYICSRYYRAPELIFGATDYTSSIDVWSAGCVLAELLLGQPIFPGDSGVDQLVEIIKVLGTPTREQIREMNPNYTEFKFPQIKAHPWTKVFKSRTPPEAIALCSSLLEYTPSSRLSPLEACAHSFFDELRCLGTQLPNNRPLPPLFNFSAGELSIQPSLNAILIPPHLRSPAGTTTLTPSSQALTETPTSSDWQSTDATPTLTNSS
Sequence of PIP4K2C (Q8TBX8 whole entry): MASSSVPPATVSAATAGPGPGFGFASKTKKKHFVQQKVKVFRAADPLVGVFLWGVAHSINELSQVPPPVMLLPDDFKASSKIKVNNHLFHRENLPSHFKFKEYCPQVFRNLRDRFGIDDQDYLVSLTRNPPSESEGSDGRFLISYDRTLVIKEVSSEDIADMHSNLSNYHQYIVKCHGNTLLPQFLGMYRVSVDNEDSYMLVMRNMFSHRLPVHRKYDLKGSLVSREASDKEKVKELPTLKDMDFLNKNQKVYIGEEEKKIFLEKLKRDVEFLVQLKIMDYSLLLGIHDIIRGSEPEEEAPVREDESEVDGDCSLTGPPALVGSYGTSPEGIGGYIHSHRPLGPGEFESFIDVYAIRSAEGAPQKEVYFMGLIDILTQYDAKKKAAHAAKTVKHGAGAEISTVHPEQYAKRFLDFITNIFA

Nc1ncc(-c2ccc(NS(=O)(=O)C3CC3)cc2OC2CCCCC2)cc1-c1ccc2c(c1)CCNC2=O [Compound I-65, N-(4-(6-amino-5-(1-oxo-1,2,3,4-tetrahydroisoquinolin-6-yl)pyridin-3-yl)-3-(cyclohexyloxy)phenyl) cyclopropanesulfonamide]
inhibition at 10 µM (ATR; [2]): 0% | inhibition at 10 µM (ATR; read-out: inhibition (10 μM)): 28.1% | % inhibition (AurA, AurB, AurC; 10 μM, range class): 35-40% | inhibition (10 μM) (AurA, AurB, AurC): 42.9% | inhibition at 10 µM (AurB; [2]): 0% | inhibition at 10 µM (AurB; read-out: inhibition (10 μM)): 21% | inhibition at 10 µM (CDK7; [2]): 0% | inhibition at 10 µM (CDK7; read-out: inhibition (10 μM)): 29.9% | inhibition at 10 µM (CHK2; [2]): 0% | inhibition at 10 µM (CHK2; read-out: inhibition (10 μM)): 11.2% | inhibition at 10 µM (CaMKK2; [2]): 75 to 90% | inhibition at 10 µM (CaMKK2; read-out: inhibition (10 μM)): 85.6% | inhibition at 10 µM (Erk1; [2]): 0% | inhibition at 10 µM (Erk1; read-out: inhibition (10 μM)): -30.7% | inhibition at 10 µM (FRAP; [2]): 35 to 40% | inhibition at 10 µM (FRAP; read-out: inhibition (10 μM)): 47.9% | % inhibition (FYN, SRC, YES; 10 μM, range class): 0.0% | inhibition (10 μM) (FYN, SRC, YES): −8.4% | inhibition at 10 µM (GCK; [2]): > 90% | inhibition at 10 µM (GCK; read-out: inhibition (10 μM)): 92.5% | inhibition at 10 µM (GSK3A; [2]): 75 to 90% | inhibition at 10 µM (GSK3A; read-out: inhibition (10 μM)): 86% | inhibition at 10 µM (JAK1 domain2; [2]): 0% | inhibition at 10 µM (JAK1 domain2; read-out: inhibition (10 μM)): 10.1% | inhibition at 10 µM (KHS1; [2]): 50 to 75% | inhibition at 10 µM (KHS1; read-out: inhibition (10 μM)): 73.3% | % inhibition (KSR1, KSR2; 10 μM, range class): 0.0% | inhibition (10 μM) (KSR1, KSR2): −5.7% | inhibition at 10 µM (LOK; [2]): > 90% | inhibition at 10 µM (LOK; read-out: inhibition (10 μM)): 98.7% | inhibition at 10 µM (MARK2; [2]): 0% | inhibition at 10 µM (MARK2; read-out: inhibition (10 μM)): -45.1% | inhibition at 10 µM (MST2; [2]): > 90% | inhibition at 10 µM (MST2; read-out: inhibition (10 μM)): 97.3% | inhibition at 10 µM (NDR1; [2]): 0% | inhibition at 10 µM (NDR1; read-out: inhibition (10 μM)): -14.5% | inhibition (10 μM) (NuaK1): 61.5% | inhibition at 10 µM (NuaK1; [2]): 50 to 75% | inhibition at 10 µM (NuaK1; read-out: inhibition (10 μM)): 66.8% | inhibition at 10 µM (PI4KB; [2]): 0% | inhibition at 10 µM (PI4KB; read-out: inhibition (10 μM)): 8.6% | inhibition at 10 µM (PIP4K2C; [2]): > 90% | inhibition at 10 µM (PIP4K2C; read-out: inhibition (10 μM)): 90.2% | % inhibition (PITSLRE; 10 μM, range class): 0.0% | inhibition (10 μM) (PITSLRE): −17.5% | inhibition at 10 µM (PKCi; [2]): 0% | inhibition at 10 µM (PKCi; read-out: inhibition (10 μM)): -41.2% | inhibition at 10 µM (PRP4; [2]): 0% | inhibition at 10 µM (PRP4; read-out: inhibition (10 μM)): -19.3% | % inhibition ([1]; 10 μM, range class): 50-75% | inhibition (10 μM) [1]: 68.4% | inhibition at 10 µM (RSK2 domain2; [2]): 0% | inhibition at 10 µM (RSK2 domain2; read-out: inhibition (10 μM)): 7.2% | inhibition at 10 µM (RSKL1; [2]): 0% | inhibition at 10 µM (RSKL1; read-out: inhibition (10 μM)): -10.6% | inhibition at 10 µM (SGK3; [2]): 0% | inhibition at 10 µM (SGK3; read-out: inhibition (10 μM)): 13.5% | % inhibition (TAO1, TAO3; 10 μM, range class): 0.0% | inhibition (10 μM) (TAO1, TAO3): 14.4% | inhibition at 10 µM (TLK1; [2]): 0% | inhibition at 10 µM (TLK1; read-out: inhibition (10 μM)): -1.2% | inhibition at 10 µM (TYK2 domain2; [2]): 0% | inhibition at 10 µM (TYK2 domain2; read-out: inhibition (10 μM)): -8.4% | inhibition at 10 µM (p38a): 0% | inhibition at 10 µM (p70S6K; [2]): 0% | inhibition at 10 µM (p70S6K; read-out: inhibition (10 μM)): 11.1% | inhibition at 10 µM (p70S6Kb; [2]): 0% | inhibition at 10 µM (p70S6Kb; read-out: inhibition (10 μM)): 32%
